Measured values: PubChem BioAssay (NCI)
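How tested: cells in 96-well plates exposed to compound for 48 hours at five concentrations. At the TGI there is no net growth.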

Legend:
Experiment in all cases: NCI-60 cell line screen, 48 h
HOP-62 NSCLC = system: HOP-62 NSCLC
LOX IMVI melanoma = system: LOX IMVI melanoma
LXFL 529 NSCLC = system: LXFL 529 NSCLC
MOLT-4 leukemia = system: MOLT-4 leukemia
SF-268 CNS = system: SF-268 CNS
SK-MEL-5 melanoma = system: SK-MEL-5 melanoma
SK-OV-3 ovarian = system: SK-OV-3 ovarian
SNB-78 CNS = system: SNB-78 CNS
UACC-257 melanoma = system: UACC-257 melanoma

Structure (SMILES) | TGI (HOP-62 NSCLC) | TGI (LOX IMVI melanoma) | TGI (LXFL 529 NSCLC) | TGI (MOLT-4 leukemia) | TGI (SF-268 CNS) | TGI (SK-MEL-5 melanoma) | TGI (SK-OV-3 ovarian) | TGI (SNB-78 CNS) | TGI (UACC-257 melanoma)
c1ccc2c(CNCCCCCCCCCCCCNCc3cccc4ccccc34)cccc2c1 | 4.56 µM | 2.52 µM | 3.23 µM | 2.92 µM | 4.84 µM | 3.27 µM | 26.5 µM | 3.41 µM | 3.17 µM
Cc1ccccc1NC(=O)c1ccc([N+](=O)[O-])cc1 | > 100 µM | > 100 µM | > 100 µM | > 100 µM | > 100 µM | > 100 µM | > 100 µM | > 100 µM | > 100 µM
CCOC(=O)C(C(=O)OCC)=c1sc(=C(C(=O)OCC)C(=O)OCC)s1 | > 100 µM | > 100 µM | > 100 µM | > 100 µM | > 100 µM | > 100 µM | > 100 µM | > 100 µM | > 100 µM
Cc1c(CC/C(=N\Nc2ccc([N+](=O)[O-])cc2[N+](=O)[O-])c2ccccc2)c2ccccc2n1C | > 100 µM | > 100 µM | > 100 µM | > 64.8 µM | > 100 µM | > 100 µM | > 100 µM | > 100 µM | > 100 µM
CC(C)C1COC(c2ccc3ccccc3c2-c2c(O[Si](C)(C)C(C)(C)C)ccc3ccccc23)=N1 (stereo not drawn) | 33.4 µM | 45.5 µM | 28.7 µM | 32 µM | 34.7 µM | 31.8 µM | 34.5 µM | 21.4 µM | 34.1 µM
FC(F)(F)c1nc(-c2ccccc2)oc1Sc1oc(-c2ccccc2)nc1C(F)(F)F | > 100 µM | > 100 µM | > 100 µM | > 100 µM | > 100 µM | > 100 µM | > 100 µM | > 100 µM | > 100 µM
CC(C)(C)C(=O)/C=C/c1cccc(Oc2ccccc2)c1 | > 100 µM |  | 33.1 µM | 57.1 µM |  | 30.4 µM | > 100 µM | 48.1 µM | 28.4 µM
COC(=O)[C@@]12C=CC(=O)[C@H]3C[C@@H](C(C(C)C)C1)[C@]32OC (stereo partly drawn) | > 100 µM |  | > 100 µM | > 100 µM | > 100 µM | > 100 µM | > 100 µM | > 100 µM | > 100 µM
COc1ccc(C2C3=C(COC3=O)Oc3cc4c(cc32)OCO4)cc1 (stereo not drawn) | 51.7 µM | > 100 µM |  | 81.1 µM |  | > 100 µM | > 100 µM | > 100 µM | > 100 µM
FC(F)(F)c1cccc(C2SCc3nc4ccccc4n32)c1 (stereo not drawn) |  |  | > 100 µM | > 100 µM | > 100 µM | > 100 µM | 89.1 µM | > 100 µM | > 100 µM
COC1CC(OC)C(O)C(CO)O1 (stereo not drawn) | > 100 µM | > 100 µM | > 100 µM | > 100 µM |  | > 100 µM | > 100 µM | > 100 µM | > 100 µM
CCCCCCCCCCCCCCCCCC[N+](C)(C)Cc1ccc(C[N+](C)(C)CCCCCCCCCCCCCCCCCC)cc1 | 34.7 µM | 32.3 µM | 12.8 µM | 51.8 µM | 43.1 µM | 66.6 µM | 69.6 µM | 47.1 µM | 34 µM
CC1=Nc2ccccc2C12C(c1ccccc1)C(c1ccccc1)C(=O)N1c3ccccc3CC12 (stereo not drawn) | > 100 µM | > 100 µM | > 100 µM | > 100 µM |  | > 100 µM | > 100 µM | > 100 µM | > 100 µM
